This note sets out measurements from ChEMBL document CHEMBL3832761, “MMV Pathogen Box Bioactivity Data” (2017).

What is called MIC90 is an inhibitory concentration at the 90% level, which refers to growth in some studies and to a panel of isolates in others. The MIC is the lowest concentration that inhibits growth of the organism. Broadly, the CC50 is the concentration at which the toxic effect on the cells reaches its halfway point. Usually IC50 stands for the midpoint of a concentration-inhibition curve. Read a low IC50 as greater potency.

The subject of assay [1] is Mycobacterium tuberculosis. The assay is described as follows: AntiMycobacterium tuberculosis activity Non-Replicating form: Average MIC90 (uM). The format is functional.
In assay [2] the test system is Mycobacterium tuberculosis. The assay is described as follows: AntiMycobacterium tuberculosis activity 2-week 7H9/glucose/BSA/Tx MIC (uM). The format is functional. As to conditions: 336 h.
The subject of assay [3] is Mycobacterium tuberculosis. Briefly: AntiMycobacterium tuberculosis activity 1-week GAST/Fe MIC (uM). As to conditions: 168 h. The class given is functional.
Assay [4] relates to Mycobacterium tuberculosis. The assay is described as follows: AntiMycobacterium tuberculosis activity 1-week 7H9/ADC/Tw MIC (uM). The format is functional. Particulars: 168 h.
The test system of assay [5] is Mycobacterium tuberculosis. Briefly: AntiMycobacterium tuberculosis activity 2-week 7H9/ADC/Tw MIC (uM). The format is functional. As to conditions: 336 h.
Assay [6] has as its system Mycobacterium tuberculosis. The assay is described as follows: AntiMycobacterium tuberculosis activity 1-week 7H9/DPPC/cholesterol/BSA/Tx MIC (uM). The format is functional. Particulars: 168 h.
Assay [7] deals with Mycobacterium tuberculosis. The assay is described as follows: AntiMycobacterium tuberculosis activity 1-week 7H9/cholesterol/BSA/Tx MIC (uM). The class given is functional. Particulars: 168 h.
Assay [8] deals with Mycobacterium tuberculosis. Briefly: AntiMycobacterium tuberculosis activity 2-week 7H9/DPPC/cholesterol/BSA/Tx MIC (uM). The class given is functional. Particulars: 336 h.
Assay [9] deals with Mycobacterium tuberculosis. The assay is described as follows: AntiMycobacterium tuberculosis activity 2-week Alamar Blue 7H9/cholesterol/BSA/Tx MIC (uM). The class given is functional. As to conditions: 336 h. (In general: Resazurin is reduced to fluorescent resorufin, in cell work by metabolically active cells.)
Assay [10] deals with Mycobacterium tuberculosis. Briefly: AntiMycobacterium tuberculosis activity day 21 in 7H9/2.5mM butyrate/pH6/0.1mM nitrite MIC90 (uM). The class given is functional. As to conditions: 504 h.
Assay [11] has as its system Mycobacterium tuberculosis. The assay is described as follows: (§1) AntiMycobacterium tuberculosis activity day 10 in 7H9/2.5mM butyrate/pH6/0.1mM nitrite MIC90 (uM). The class given is functional. Particulars: 240 h.
The subject of assay [12] is HepG2. Briefly: HepG2 CC50 (uM) Cytotoxicity. The format is functional. As to conditions: Homo sapiens.
Assay [13] relates to Mycobacterium tuberculosis. The assay is described as follows: AntiMycobacterium tuberculosis activity 2-week GAST/Fe MIC (uM). The format is functional. Particulars: 336 h.
In assay [14] the test system is Mycobacterium tuberculosis. The assay is described as follows: AntiMycobacterium tuberculosis activity Replicating form: Average MIC90 (uM). The class given is functional.
The test system of assay [15] is Mycobacterium tuberculosis. Briefly: AntiMycobacterium tuberculosis activity 2-week Alamar Blue 7H9/ADC/Tw MIC (uM). The format is functional. As to conditions: 336 h.
The subject of assay [16] is Mycobacterium tuberculosis. The assay is described as follows: AntiMycobacterium tuberculosis activity day 21 MIC99 in 7H9/2.5mM butyrate/pH6/0.1mM nitrite MIC99 (uM). The format is functional. As to conditions: 504 h.
The subject of assay [17] is Mycobacterium tuberculosis. Described as §1. The class given is functional. As to conditions: 240 h. This is another data set of the same source.
The test system of assay [18] is Mycobacterium tuberculosis. Briefly: AntiMycobacterium tuberculosis activity 1-week 7H9/glucose/BSA/Tx MIC (uM). The class given is functional. Particulars: 168 h.
Assay [19] has as its system HepG2. The assay is described as follows: Cytotoxicity data HepG2 CC20 (uM). The format is functional.
In assay [20] the test system is Plasmodium falciparum. Briefly: Antimalarial activity: Asexual Blood Stage Plasmodium falciparum 3D7 IC50 (uM). The format is functional, organism-based.
In assay [21] the test system is Plasmodium falciparum. Briefly: Antimalarial activity: Asexual Blood Stage Plasmodium falciparum W2 IC50 (uM). The format is functional, organism-based.
For assay [22], the system named is Plasmodium falciparum. The assay is described as follows: Antimalarial activity: Gametocytes Plasmodium falciparum NF54 Gametocytes Stage V: inhibition at 10 uM (%). The class given is functional.
The test system of a further assay is Plasmodium berghei. The assay is described as follows: Antimalarial activity: Liver Stage Plasmodium berghei sporozoite Luciferase assay: inhibition at 10 uM (%). The class given is functional.

≈ marks a conversion by molar mass, not a printed value. Calls of active or inactive are those of the source. The calls are words filed in the database; no cut-off is given here.

As for `COc1ccc(-c2nc(-c3cccc(NC(=O)Cc4ccc(F)cc4)c3)no2)cc1OC`, the MIC90 came to 1.61 µM (≈ 0.698 µg/mL) in assay [1]; 6.25 µM (≈ 2.71 µg/mL) in assay [10]; 3.12 µM (≈ 1.35 µg/mL) in [11]; 0.39 µM (≈ 0.169 µg/mL) in assay [14]; 3.12 µM (≈ 1.35 µg/mL) in assay [17]. Besides, the MIC in assay [2] amounted to 0.2 µM (≈ 0.0867 µg/mL); in assay [3], 1.56 µM (≈ 0.676 µg/mL); in assay [4], 0.3 µM (≈ 0.13 µg/mL); in [5], 0.39 µM (≈ 0.169 µg/mL); in assay [6], 0.78 µM (≈ 0.338 µg/mL); in assay [7] it was 0.6 µM (≈ 0.26 µg/mL). Further, the MIC in assay [8] was found to be 0.78 µM (≈ 0.338 µg/mL); in [9], 0.6 µM (≈ 0.26 µg/mL); in [13] it was 1.56 µM (≈ 0.676 µg/mL); in [15], 0.39 µM (≈ 0.169 µg/mL); in assay [16], 6.25 µM (≈ 2.71 µg/mL); in [18] it was 0.2 µM (≈ 0.0867 µg/mL). For the same compound, the half-maximal cytotoxic concentration (CC50) in the assay on HepG2 [12] is above 100 µM.

The compound `Nc1ncnc2c1ncn2C[C@@H](O)[C@@H](O)C(=O)O` [ERITADENINE] returned a CC20 with HepG2 [19] above 80 µM.

Turning to `O=C(C1CCN(c2nnnn2-c2ccccc2)CC1)N1CCc2ccccc2C1`, in the assay with Plasmodium falciparum [20], the inhibition result was “inactive”. This compound registered a CC20 in the assay on HepG2 [19] above 80 µM.

Turning to `CC(C)n1ncc2c(C(=O)NCC(c3cccs3)N3CCOCC3)cc(-c3ccccc3)nc21` (centres undefined), the MIC90 in assay [1] was determined as 1.28 µM (≈ 0.609 µg/mL); in assay [10] it was 3.12 µM (≈ 1.48 µg/mL); in assay [11], 1.5 µM (≈ 0.713 µg/mL); in [14] it was 0.61 µM (≈ 0.29 µg/mL); in assay [17] it was 3.12 µM (≈ 1.48 µg/mL). Moreover, the MIC is 1.2 µM (≈ 0.571 µg/mL) in [2]; 0.3 µM (≈ 0.143 µg/mL) in assay [3]; 0.78 µM (≈ 0.371 µg/mL) in assay [4]; 1.2 µM (≈ 0.571 µg/mL) in [5]; 0.78 µM (≈ 0.371 µg/mL) in [6]; 0.6 µM (≈ 0.285 µg/mL) in [7]. Further, the MIC was found to be 0.78 µM (≈ 0.371 µg/mL) in assay [8]; 1.56 µM (≈ 0.742 µg/mL) in [9]; 0.3 µM (≈ 0.143 µg/mL) in assay [13]; 1.2 µM (≈ 0.571 µg/mL) in assay [15]; 1.5 µM (≈ 0.713 µg/mL) in [16]; 1.2 µM (≈ 0.571 µg/mL) in assay [18]. In the assay on HepG2 [12], this compound came in with a CC50 of 58 µM.

In assay [1], `COc1ccc(-c2cc(NC(=O)c3ccc(F)cc3Cl)ccc2OC)cc1` displayed an MIC90 of 67.7 µM (≈ 26.1 µg/mL). For the same compound, the MIC in [3] was found to be 3.13 µM (≈ 1.21 µg/mL); in assay [7], 25 µM (≈ 9.65 µg/mL); in assay [13], 19 µM (≈ 7.33 µg/mL); in assay [15], 50 µM (≈ 19.3 µg/mL). The CC50 in the assay on HepG2 [12] is above 100 µM.

In the case of `Cc1cc(Nc2ccc(C(F)(F)F)cc2)n2ccnc2n1`, the IC50 in the assay with Plasmodium falciparum [21] turned out to be 0.36 µM; in the assay with Plasmodium falciparum [20], 0.38 µM. Further, the figures for the inhibition entry in the assay with Plasmodium falciparum [22] and with Plasmodium berghei were “Series known to be inactive” and “Series known to be active”, respectively.

In the case of `O=C(COc1cccc(F)c1)Nc1nc(-c2ccccn2)cs1`, the MIC90 in assay [1] was 27.5 µM (≈ 9.07 µg/mL); in [10] it was 25 µM (≈ 8.23 µg/mL); in assay [11], above 50 µM; in [14], 84.4 µM (≈ 27.8 µg/mL); in assay [17] it was 12.5 µM (≈ 4.12 µg/mL). The MIC in assay [2] was found to be 37 µM (≈ 12.2 µg/mL); in [3] it was 1.2 µM (≈ 0.395 µg/mL); in assay [4], 37 µM (≈ 12.2 µg/mL); in [5], 50 µM (≈ 16.5 µg/mL); in assay [6], 19 µM (≈ 6.26 µg/mL); in assay [7], 19 µM (≈ 6.26 µg/mL). Further, the MIC in assay [8] was 50 µM (≈ 16.5 µg/mL); in [9] it was 37 µM (≈ 12.2 µg/mL); in assay [13], 2.3 µM (≈ 0.758 µg/mL); in assay [15], 50 µM (≈ 16.5 µg/mL); in assay [16], above 50 µM; in assay [18] it was 19 µM (≈ 6.26 µg/mL).

Take `O=C(NCCN1CCCC1)c1cc(NCCCCN2CCC(F)(F)CC2)nc2ccc(Cl)cc12`: the inhibition result with Plasmodium falciparum [22] and with Plasmodium berghei was “Series known to be active” each time. Further, 0.01 µM corresponded to half-maximal inhibition with Plasmodium falciparum [20] (IC50).
